Consider 14 compounds from US6294674A, “Dibenzofuran sulfonamide matrix metalloproteinase inhibitors” (priority 1999, dated 2001).

The target in assay [1] is T1, MMP01 (Homo sapiens, UniProt P03956).
T1 construct: purchased Washington University School of Medicine, St. Louis, Mo
T1 sequence (P03956 100-469): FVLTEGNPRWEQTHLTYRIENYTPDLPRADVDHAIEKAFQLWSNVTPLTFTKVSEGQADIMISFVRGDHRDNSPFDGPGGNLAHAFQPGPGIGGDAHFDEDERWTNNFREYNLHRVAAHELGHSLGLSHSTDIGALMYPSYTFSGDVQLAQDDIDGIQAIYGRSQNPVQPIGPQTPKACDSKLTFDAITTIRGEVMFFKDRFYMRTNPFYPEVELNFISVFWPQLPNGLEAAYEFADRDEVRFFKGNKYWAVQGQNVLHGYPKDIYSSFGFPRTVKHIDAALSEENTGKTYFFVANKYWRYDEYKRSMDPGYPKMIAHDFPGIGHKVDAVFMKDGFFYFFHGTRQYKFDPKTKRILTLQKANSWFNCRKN
Put plainly: Thiopeptolide assay, MMP01. Type of assay: biochemical. Conditions: Tables 2, 3, 5, 7; read-out: IC50 MMP1. The protocol:
(§1) MMP01, MMP07, MMP09, and MMP13 activity was assayed in a method similar to MMP02 and MMP03 (SCD and GCD). MMP01 and MMP09 can be obtained from Washington University School of Medicine, St. Louis, Mo. MMP07 can be obtained in accordance with the known procedure set forth by Ye QZ, Johnson L. L., and Baragi V., "Gene Syntheses and Expression in E. coli for PUMP, a Human Matrix Metalloproteinase" Biochem. and Biophys. […] MMP 13 can be obtained in accordance with the known procedure set forth by Freije J. M. P., et al., "Molecular Cloning and Expression of Collegenase-3, a Novel Human Matrix Metalloproteinase Produced by Breast Carcinomas" J. Bio.
(§2) Hydrolysis of the thiopeptolide substrate Ac-Pro-Leu-Gly-thioester-Leu-Leu-Gly-OEt (Bachem) is used as the primary screen to determine IC50 values for MMP inhibitors. A 100 μL reaction contains 1 mM 5,5'-dithiobis(2-nitrobenzoic acid) (DTNB), 100 μM substrate, 0.1% Brij, enzyme, and inhibitor in the appropriate reaction buffer. Activated full-length enzymes are assayed at 5 nM, Stromelysin Catalytic Domain (SCD) at 10 nM, and Gelatinase A Catalytic Domain (GaCD) at 1 nM. Inhibitors are screened from 100 μM to 1 nM. Full-length enzymes are assayed in 50 mM HEPES, 10 mM CaCl2, pH 7.0; SCD in 50 mM MES, 10 mM CaCl2, pH 6.0; and GaCD in 50 mM MOPS, 10 mM CaCl2, 10 μM ZnCl2, pH 7.0.

Assay [2] has as its target gelatinase A catalytic domain (MMP02). Put plainly: Thiopeptolide assay, gelatinase A catalytic domain (GCD, MMP02). To be noted: Tables 2, 3, 5, 7; read-out: IC50 MMP-2CD. Type of assay: biochemical. Here is the method:
as §2

Assay [3] concerns the target T2, stromelysin-1 catalytic domain (MMP03) (Homo sapiens, UniProt P08254).
T2 construct: SCD (stromelysin-1 catalytic domain); made in house; host or cells: Escherichia coli
Briefly: Thiopeptolide assay, stromelysin-1 catalytic domain (SCD, MMP03). Type of assay: biochemical. Conditions: Tables 2, 3, 5, 7; read-out: IC50 MMP 3CD. Here is the method:
as §2

The target in assay [4] is T3, MMP07 (Homo sapiens, UniProt P09237).
T3 construct: made in house; host or cells: Escherichia coli
T3 sequence (P09237 95-267): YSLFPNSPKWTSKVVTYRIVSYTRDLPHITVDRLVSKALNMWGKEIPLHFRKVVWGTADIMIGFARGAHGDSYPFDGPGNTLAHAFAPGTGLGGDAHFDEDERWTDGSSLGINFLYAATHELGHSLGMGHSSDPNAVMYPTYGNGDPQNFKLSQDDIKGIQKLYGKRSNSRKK
Briefly: Thiopeptolide assay, MMP07. Conditions: Tables 2, 3, 5, 7; read-out: IC50 MMP-7. Type of assay: biochemical. The protocol:
as §1, §2

The test system of assay [5] is MMP-13CD. Briefly: Thiopeptolide assay, MMP-13CD. The assay is classed as biochemical, human. Conditions: Tables 2, 3, 5, 7. Here is the method:
IC50 values were determined using a thiopeptolide substrate, Ac-Pro-Leu-Gly-thioester-Leu-Leu-Gly-OEt (Ye Q.-Z., Johnson L. L., Hupe D. J., and Baragi V., "Purification and Characterization of the Human Stromelysin Catalytic Domain Expressed in Escherichia coli," Biochemistry, 1992;31:11231-11235). MMP01, MMP07, MMP09, and MMP13 activity was assayed in a method similar to MMP02 and MMP03 (SCD and GCD). MMP01 and MMP09 can be obtained from Washington University School of Medicine, St. Louis, Mo. MMP07 can be obtained in accordance with the known procedure set forth by Ye QZ, Johnson L. L., and Baragi V., "Gene Syntheses and Expression in E. coli for PUMP, a Human Matrix Metalloproteinase" Biochem. and Biophys. Res. Comm., 1992; 186:143-149. MMP 13 can be obtained in accordance with the known procedure set forth by Freije J. M. P., et al., "Molecular Cloning and Expression of Collegenase-3, a Novel Human Matrix Metalloproteinase Produced by Breast Carcinomas" J. Bio. Chem., 1994;269:16766-6773.
as §2, with “7.0. The change in absorbance at 405 riM is monitored on a ThermoMax microplate reader at room temperature continuously for 20 minutes.” for “7.0.”

T2 sequence (P08254 100-272 limits assumed): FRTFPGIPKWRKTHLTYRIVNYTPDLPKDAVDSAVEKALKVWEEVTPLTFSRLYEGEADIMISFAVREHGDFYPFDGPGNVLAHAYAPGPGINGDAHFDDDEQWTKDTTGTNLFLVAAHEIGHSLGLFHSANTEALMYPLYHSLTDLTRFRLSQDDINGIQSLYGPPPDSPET

The term IC50 denotes the concentration at which inhibition is half-maximal. As to `O=C(CCCc1c[nH]c2ccccc12)NCCCCC(NS(=O)(=O)c1ccc2oc3ccccc3c2c1)C(=O)O` (stereo not shown) [Example A31, 2-(Dibenzofuran-2-sulfonylamino)-6-(4-1H-indol-3-yl-butyrylamino)-hexanoic acid], the IC50 was > 100 µM in assay [1]; 3.3 µM in assay [2]; 6.4 µM in assay [3]; > 100 µM in assay [4]; 12.8 µM in assay [5].

Take `O=C(Cc1ccc2c(c1)OCO2)NCCCCC(NS(=O)(=O)c1ccc2oc3ccccc3c2c1)C(=O)O` (stereo not shown) [Example A19, 6-(2-Benzo[1,3]dioxol-5-yl-acetylamino)-2-(dibenzofuran-2-sulfonylamino)-hexanoic acid]: the IC50 in assay [1] is > 100 µM; in assay [2], 1 µM; in assay [3], 1.7 µM; in assay [4] it was 92.9 µM; in assay [5], 3 µM.

In the case of `O=C(CCCc1ccc([N+](=O)[O-])cc1)NCCCCC(NS(=O)(=O)c1ccc2oc3ccccc3c2c1)C(=O)O` (stereo not shown) [Example A21, 2-(Dibenzofuran-2-sulfonylamino)-6-[4-(4-nitro-phenyl)-butyrylamino]-hexanoic acid], the IC50 in assay [1] is > 100 µM; in assay [2] it was 3.3 µM; in assay [3], 7.5 µM; in assay [4], > 100 µM; in assay [5] it was 9.2 µM.

Take `O=C(CCC(NS(=O)(=O)c1ccc2oc3ccccc3c2c1)C(=O)O)NCC(c1ccccc1)c1ccccc1` (stereo not shown) [Example F5, 2-(Dibenzofuran-2-sulfonylamino)-4-(2,2-diphenyl-ethylcarbamoyl)-butyric acid]: the IC50 in assay [1] was > 100 µM; in assay [2], 0.7 µM; in assay [3] it was 1 µM; in assay [4], 40.9 µM; in assay [5], 0.7 µM.

In the case of `COc1ccc(CCC(=O)NCCCCC(NS(=O)(=O)c2ccc3oc4ccccc4c3c2)C(=O)O)cc1` (stereo not shown) [Example A17, 2-(Dibenzofuran-2-sulfonylamino)-6-[3-(4-methoxy-phenyl)-propionylamino]-hexanoic acid], the IC50 was > 100 µM in assay [1]; 0.7 µM in assay [2]; 0.9 µM in assay [3]; 53.3 µM in assay [4]; 4.4 µM in assay [5].

As for `CC(C)(C)c1ccc(OCC(=O)NCCCCC(NS(=O)(=O)c2ccc3oc4ccccc4c3c2)C(=O)O)cc1` (stereo not shown) [Example A10, 6-[2-(4-tert-Butyl-phenoxy)actylamino]-2-(dibenzofuran-2-sulfonylamino)-hexanoic acid], the IC50 was > 100 µM in assay [1]; 9.4 µM in assay [2]; 26.5 µM in assay [3]; > 100 µM in assay [4]; 63 µM in assay [5].

On to `O=C(O)C(CCCCNS(=O)(=O)c1ccc(Br)cc1)NS(=O)(=O)c1ccc2oc3ccccc3c2c1` (stereo not shown) [Example D3, 6-(4-Bromo-benzenesulfonylamino)-2-(dibenzofuran-2-sulfonylamino)-hexanoic acid], for which the IC50 was > 100 µM in assay [1]; 2.9 µM in assay [2]; 8.6 µM in assay [3]; > 100 µM in assay [4]; 11.8 µM in assay [5].

As to `CCC(Oc1ccccc1)C(=O)NCCCCC(NS(=O)(=O)c1ccc2oc3ccccc3c2c1)C(=O)O` (stereo not shown) [Example A6, 2-(Dibenzofuran-2-sulfonylamino)-6-(2-phenoxy-butrylamino)-hexanoic acid], the IC50 in assay [1] was > 100 µM; in assay [2], 1.5 µM; in assay [3] it was 3.9 µM; in assay [4], > 100 µM; in assay [5], 8 µM.

On to `Cc1cc(OCCCC(=O)NCCCCC(NS(=O)(=O)c2ccc3oc4ccccc4c3c2)C(=O)O)ccc1Cl` (stereo not shown) [Example A16, 6-[4-(4-Chloro-3-methyl-phenoxy)-butyrylamino]-2-(dibenzofuran-2-sulfonylamino)-hexanoic acid], for which the IC50 in assay [1] is > 100 µM; in assay [2] it was 5.5 µM; in assay [3], 6.5 µM; in assay [4], > 100 µM; in assay [5], 34.4 µM.

Turning to `O=C(CCC(NS(=O)(=O)c1ccc2oc3ccccc3c2c1)C(=O)O)NCCc1ccncc1` (stereo not shown) [Example F1, 2-(Dibenzofuran-2-sulfonylamino)-4-(2-pyridin-4-yl-ethylcarbamoyl)-butyric acid], the IC50 in assay [1] was > 100 µM; in assay [2] it was 1.4 µM; in assay [3], 1.9 µM; in assay [4], 62 µM; in assay [5] it was 4.1 µM.

Turning to `COc1ccc(NC(=O)NCCCCC(NS(=O)(=O)c2ccc3oc4ccccc4c3c2)C(=O)O)cc1` (stereo not shown) [Example B1, 2-(Dibenzofuran-2-sulfonylamino)-6-[3-(4-methoxy-phenyl)-ureido]-hexanoic acid], the concentration for half-maximal inhibition (IC50) was > 100 µM in assay [1]; 2.7 µM in assay [2]; 8.8 µM in assay [3]; > 100 µM in assay [4]; 14.2 µM in assay [5].

`O=C(CCC(NS(=O)(=O)c1ccc2oc3ccccc3c2c1)C(=O)O)NCc1cccc2ccccc12` (stereo not shown) [Example F16]: the IC50 is > 100 µM in assay [1]; 0.4 µM in assay [2]; 1.1 µM in assay [3]; 22.1 µM in assay [4]; 1 µM in assay [5].

Take `O=C(NCCCCC(NS(=O)(=O)c1ccc2oc3ccccc3c2c1)C(=O)O)Nc1ccccc1` (stereo not shown) [Example B10, 2-(Dibenzofuran-2-sulfonylamino)-6-(3-phenyl-ureido)-hexanoic acid]: the IC50 was > 100 µM in assay [1]; 0.3 µM in assay [2]; 2.4 µM in assay [3]; > 100 µM in assay [4]; 8 µM in assay [5].

Turning to `Cc1ccc(CCC(=O)NCCCCC(NS(=O)(=O)c2ccc3oc4ccccc4c3c2)C(=O)O)cc1` (stereo not shown) [Example A27, 2-(Dibenzofuran-2-sulfonylamino)-6-(3-p-tolyl-propionylamino)-hexanoic acid], the IC50 in assay [1] was > 100 µM; in assay [2] it was 1.1 µM; in assay [3], 7.7 µM; in assay [4], > 100 µM; in assay [5] it was 5.8 µM.
